The record followed here is patent US20100210649A1, “PYRIDAZINONES AND FURAN-CONTAINING COMPOUNDS” (Sloan-Kettering Institute for Cancer Research, priority 2006, published 2010).

Structures are written as SMILES. Where two headings read alike, the source gives them in different places.

Test [1] concerns H1650. The experiment in a line: Non Small Cell Lung Cancer proliferation assay (Alamar Blue reduction), H1650. Type of test: cell-based, human. The following applies: Homo sapiens. The procedure, abridged:
(§1)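 Dose-response run: cells were counted, dispensed at 250 cells/well onto compound, incubated 48 hours at 37° C, then incubated with Alamar Blue for an additional 48 hours before fluorescence measurement. All wells held 1% DMSO final.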
In general terms: The colour change of resazurin is a common sign of viable cells or microbes.

In test [2] the test system is H1975. The experiment in a line: Non Small Cell Lung Cancer proliferation assay (Alamar Blue reduction), H1975. Type of test: cell-based, human. The settings on record: Homo sapiens. An outline of the steps:
as §1

Test [3] has as its system H2030. Put plainly: Non Small Cell Lung Cancer proliferation assay (Alamar Blue reduction), H2030. In kind it is cell-based, human. The settings on record: Homo sapiens. The procedure, abridged:
as §1

Test [4] relates to H3255. Put plainly: Non Small Cell Lung Cancer proliferation assay (Alamar Blue reduction), H3255. In kind it is cell-based, human. The following applies: Homo sapiens. The procedure, abridged: as §1
Test [5] concerns H358. Put plainly: Non Small Cell Lung Cancer proliferation assay (Alamar Blue reduction), H358. Type of test: cell-based. The following applies: Homo sapiens, NCI-H358. The procedure:
These cells have a doubling time of 1-2 days. All cell types are adherent and grow in colonies. The cells should be kept at a density between 50,000 cells/mL -500,000 cells/mL to provide for optimum growth and adequate nutrition. The cell line should be maintained at 37° C. in a humidified atmosphere with 5% CO2 in a sterile cell culture incubator.
Non Small Cell Lung Cancer Proliferation Assay.
High Controls for this assay are made by treating Non Small Cell Lung Cancer cells with 5 ul of 10% DMSO. [Final concentration in this assay is 1% DMSO].
Important Note: All compounds for testing in this assay should be done at the final concentration of 1% DMSO.
After addition, the cells are placed in cell culture incubator at 37° C. for 48 hours for complete treatment.
After drug treatment, cytotoxicity is measured by Alamar Blue reduction.
The cells are incubated for 48 hours at 37° C. to complete the Alamar Blue reduction.
The final step in the assay is to measure the amount of Alamar Blue reduction. […] The Alamar Blue fluorescence is measured at an excitation of 530 nm and emission of 590 nm.
For the NSCLC project, the cell based assay was screened against a small molecule library of approximately 200,000 compounds. The compound library is stored in our automated robotic freezer (Biophile) at −20° C. in 100% DMSO. Compound freeze and thaw cycles are kept to a minimum. […] This assay was performed on a fully automated linear track robotic platform (CRS F3 Robot System, Thermo Electron Corp., Ontario, Canada) utilizing several integrated peripherals for plate handling, liquid dispensing, and readout detection. […] The microplates are then placed at 37° C. for 48 hours to complete treatment of cells with compounds. Next, 5 ul of alamar blue was added using a liquid dispenser (Flexprop Precision Dispenser, Perkin Elmer, Mass., USA) and incubated for 48 hours at 37° C. The alamar blue prompt fluorescence was measured on Victor V (Victor^3 V, Perkin Elmer, Mass., USA) and output data files were loaded into ORIS (Oncology Research Informatics System, MSKCC, NY, USA), a screening data acquisition and analysis platform.
(§2) The dose response studies were done with the following standard procedure. First, the cells were counted and dispensed at 250 cells/well into 384-well microplates with compound. The cells were incubated for 48 hours at 37 C to complete treatment, and then alamar blue was added for an additional 48 hours. Finally, alamar blue reduction was measured and the data was loaded into ORIS, our data screening acquisition platform.

Test [6] has as its system HPL1D (human peripheral lung epithelial) cell line. The experiment in a line: Cell proliferation / dose response (Alamar Blue), HPL1D. Type of test: cell-based. The settings on record: HPL1D, 12 point doubling dilution 10 uM to 5 nM, 48 h treatment, alamar blue additional 48 h, read-out: IC50 HPL1D. The procedure:
WI-38: human lung fibroblast cell line. […] WT: wildtype; WT*: over-expressed wildtype. Dose response studies against 34 compounds from the pyridazinone and phenylfuran-carboxamide class were conducted. […] In addition, Tarceva was included in these dose response studies. The dose response studies were done with the following standard procedure. […] The cells were incubated for 48 hours at 37 C to complete treatment, and then alamar blue was added for an additional 48 hours. Finally, alamar blue reduction was measured and the data was loaded into ORIS, our data screening acquisition platform.

Test [7] concerns H820. The experiment in a line: Dose response study (Alamar Blue), H820. The following applies: Homo sapiens, NCI-H820; H820; 12 point doubling dilution 10 uM to 5 nM; 48 h treatment, alamar blue additional 48 h; read-out: IC50 H820. In kind it is cell-based. The procedure:
(§3) Dose response studies against 34 compounds from the pyridazinone and phenylfuran-carboxamide class were conducted. […] In addition, Tarceva was included in these dose response studies.
as §2

Test [8] deals with H23. Put plainly: Dose response study (Alamar Blue), H23. The following applies: Homo sapiens, NCI-H23; H23; 12 point doubling dilution 10 uM to 5 nM; 48 h treatment, alamar blue additional 48 h; read-out: IC50 H23. Type of test: cell-based. The procedure: as §3, §2
For test [9], the system named is H2122. The experiment in a line: Dose response study (Alamar Blue), H2122. In kind it is cell-based. The following applies: Homo sapiens, NCI-H2122; H2122; 12 point doubling dilution 10 uM to 5 nM; 48 h treatment, alamar blue additional 48 h; read-out: IC50 H2122. As for the experimental part:
as §3, §2

Test [10] concerns H2444. The experiment in a line: Dose response study (Alamar Blue), H2444. The settings on record: Homo sapiens, NCI-H2444; H2444; 12 point doubling dilution 10 uM to 5 nM; 48 h treatment, alamar blue additional 48 h; read-out: IC50 H2444. In kind it is cell-based. As for the experimental part:
as §3, §2

The mark [11] stands for this setting: NCI-H1650, 48 h, H1650, 12 point doubling dilution 10 uM to 5 nM, 48 h treatment, alamar blue additional 48 h, read-out: IC50 H1650.
[12] abbreviates: NCI-H1650, dose response 10 M to 5 nM, IC50, read-out: Dose Response (uM) H1650.
[13] abbreviates: NCI-H1975, 48 h, H1975, 12 point doubling dilution 10 uM to 5 nM, 48 h treatment, alamar blue additional 48 h, read-out: IC50 H1975.
[14] abbreviates: NCI-H1975, dose response 10 M to 5 nM, IC50, read-out: Dose Response (uM) H1975.
Setting [15] is: NCI-H2030, 48 h, H2030, 12 point doubling dilution 10 uM to 5 nM, 48 h treatment, alamar blue additional 48 h, read-out: IC50 H2030.
The mark [16] stands for this setting: NCI-H2030, dose response 10 M to 5 nM, IC50, read-out: Dose Response (uM) H2030.
The mark [17] stands for this setting: NCI-H3255, 48 h, H3255, 12 point doubling dilution 10 uM to 5 nM, 48 h treatment, alamar blue additional 48 h, read-out: IC50 H3255.
Where [18] appears, read: NCI-H3255, dose response 10 M to 5 nM, IC50, read-out: Dose Response (uM) H3255.
Setting [19] is: H358, 12 point doubling dilution 10 uM to 5 nM, 48 h treatment, alamar blue additional 48 h, read-out: IC50 H358.
[20] abbreviates: read-out: Dose Response (uM) H358.

Turning to `O=c1c(Cl)c(Cl)cnn1-c1ccc2c(c1)OCCO2` [compound 267068], the IC50 is 2.26 µM in test [1] (setting [11]); 2.33 µM in test [1] (setting [12]); 0.37 µM in test [2] (setting [13]); 0.25 µM in test [2] (setting [14]); 0.47 µM in [3] (setting [15]); 1.23 µM in test [3] (setting [16]). The IC50 amounted to 1.23 µM in test [4] (setting [17]); 1.2 µM in test [4] (setting [18]); 0.78 µM in test [5] (setting [19]); 0.43 µM in [5] (setting [20]); 420 nM in [6]; 320 nM in [7]. The IC50 was 290 nM in test [8], 1590 nM in [9] and 410 nM in test [10].

For the molecule `COc1cccc(-n2ncc(Br)c(Br)c2=O)c1` [compound 267083], the IC50 in [1] (setting [11]) came out at 1.08 µM; in test [1] (setting [12]), 1.06 µM; in test [2] (setting [13]), 0.24 µM; in test [2] (setting [14]), 0.23 µM; in test [3] (setting [15]), 0.26 µM; in test [3] (setting [16]) it was 0.57 µM. Moreover, the IC50 in test [4] (setting [17]) was 0.65 µM; in [4] (setting [18]), 0.35 µM; in test [5] (setting [19]), 0.3 µM; in [5] (setting [20]), 0.13 µM; in [6], 220 nM; in test [7], 200 nM. The IC50 in test [8] turned out to be 210 nM; in test [9], 1150 nM; in test [10], 280 nM.

Turning to `Cc1nc2cc(-n3ncc(Cl)c(Cl)c3=O)ccc2s1` [compound 267067], the IC50 is more than 10 µM in test [1] (setting [11]); 4.47 µM in [1] (setting [12]); more than 10 µM in test [2] (setting [13]); 0.45 µM in test [2] (setting [14]); 9.19 µM in test [3] (setting [15]); 3.04 µM in [3] (setting [16]). Moreover, the IC50 in [4] (setting [17]) is more than 10 µM; in [4] (setting [18]), 3.64 µM; in [5] (setting [19]), more than 10 µM; in test [5] (setting [20]), 1.38 µM; in test [6], 7010 nM; in test [7], 8250 nM. The IC50 in test [8] was 5680 nM; in [9], more than 10000 nM; in test [10], 6920 nM.

As for `Cc1cc(-n2ncc(Cl)c(Cl)c2=O)ccc1Br` [compound 267064], the IC50 in [1] (setting [11]) was more than 10 µM; in test [1] (setting [12]), 2.83 µM; in test [2] (setting [13]) it was 7.58 µM; in test [2] (setting [14]), 0.71 µM; in [3] (setting [15]) it was 7.8 µM; in test [3] (setting [16]), 0.88 µM. In addition, the IC50 in test [4] (setting [17]) is more than 10 µM; in test [4] (setting [18]), 2.47 µM; in test [5] (setting [19]), 7.65 µM; in test [5] (setting [20]) it was 0.47 µM; in [6], 4720 nM; in test [7], 6720 nM. Also, the IC50 was 5750 nM in [8], more than 10000 nM in test [9] and 6410 nM in test [10].

`CCCCc1cccc(-n2ncc(Cl)c(Cl)c2=O)c1` [compound 267063]: the IC50 in [1] (setting [11]) is more than 10 µM; in test [1] (setting [12]), 5.82 µM; in [2] (setting [13]), 6.57 µM; in test [2] (setting [14]), 1.93 µM; in test [3] (setting [15]), 6.43 µM; in test [3] (setting [16]), 2.75 µM. Moreover, the IC50 in [4] (setting [17]) was determined as 8.35 µM; in test [4] (setting [18]), 3.89 µM; in test [5] (setting [19]), 6.66 µM; in test [5] (setting [20]) it was 0.76 µM; in test [6] it was 7040 nM; in [7] it was 6240 nM. In addition, the results for the IC50 in test [8] and in test [9] were 5470 nM and more than 10000 nM, respectively.
